This is an account of results in patent publication US20220287949A1, “SAFE PARTICLES FOR THE INTRODUCTION OF USEFUL CHEMICAL AGENTS IN THE BODY WITH CONTROLLED ACTIVATION” (priority 2019, published 2022).

The subject of series [1] is NIH 3T3 murine fibroblasts. As to the kind of experiment: Cytotoxicity of particle components (MTS assay). The format is cell-based. The conditions noted are these: dye solution in ethanol, NIH 3T3, 24 hours, 37° C. On the procedure:
Dye components were each dissolved in ethanol (molecular grade ethanol from Fisher Scientific) to produce a stock solution at 1 mM (B141, M071, and Epolight™ 1117) or 100 μM (C161). For each stock solution, additional dilutions were made at 2×, 4×, 8×, 16×, 32×, 64×, and 128×, and each concentration was tested for cytotoxicity against NIH 3T3 murine fibroblasts in a cytotoxicity test. NIH-3T3 cells were plated in a 96-well culture plate at a density of 10,000 cells per well and allowed to adhere to the surface overnight. Different concentrations of the dye solution were added to the NIH 3T3 cells and incubated for 24 hours at 37° C., in a 5% CO2 incubator. Controls for the cytotoxicity experiment included “live” and “dead” (cells were killed due to osmotic pressure by adding D.I. water). “Live” cells had nothing except cell culture media containing 10% FBS added to them and were used to obtain the 100% viability data. The “dead” control was used to obtain the 0% viability data point. After 24 hours, cells were washed twice with 1× PBS containing calcium and magnesium and 100 μL of media was added at the end. To a final volume of 100 μL of media in the wells, 20 μL of PMS activated MTS reagent was added and incubated for 90 minutes. At the end of the 90 minutes, absorbance was measured at 490 nm using a plate reader (Spectramax M2e, Molecular Devices). Viability of cells was calculated using the absorbance measured for the “live” (100%) and “dead” (0%) controls and the results of % viability estimated from the absorbance for the different concentrations of the dyes were plotted in MS Excel using linear regression curve fitting algorithm to obtain the IC30. All the samples were tested in triplicate and results were averaged over the three repeats.
On the technique in general: Tetrazolium dyes change colour on reduction, which living cells bring about.

Series [2] is described as follows: Laser triggered changing of color of tattoo particles in gelatin. Particulars: for Abs: M071 at 458 nm, IR at 1064 nm. On the procedure:
Procedure: A solution of gelatin was prepared by adding Knox gelatin (1.0 g) to cold water (12.5 g) in a 100 mL glass jar equipped with a magnetic stir bar. The gelatin was stirred 15-30 minutes and then hot water was added (70° C.) until the total weight was 50.0 g. This gelatin was then used in 2.0 gm aliquots. Colorant loaded PMMA-BMA B-805 copolymer particles with 25% VTMS shells as prepared in Example lb above (20-30 mg) were then added to the gelatin solution (2.0 g) and vortexed in a 4 dram vial. The suspension of the tattoo particles in gelatin was then sonicated for 15-30 minutes before transferring to a 5 cm plastic culture dish. The gelatin suspension was spread evenly and allowed to set. It was then covered and stored at 6° C. until used.
Laser exposure was accomplished as follows: The cover for the culture dish was removed and a 5 cm clear plastic cover was cut and fit over the gelatin to prevent splatter. The top surface was then completely irradiated at 1064 nm with a 5 mm spot using fluences ranging from 2.46 J/cm^2 to 5.09 J/cm^2 using a Nd-YAG Q-switched Lutronic laser (Lutronic Spectra™ VRM II Laser with four distinct Q-switched mode wavelengths: 1064 nm, 532 nm, 585 nm, 650 nm, nano second pulse width, and spectra peak energy: 60 MW, 120 MW and 240 MW).
After irradiating the top surface, the culture dish was covered with its lid, turned over and irradiated from the opposite side to reach any unexposed particles visible only from the bottom side.
Following the complete irradiation, the plastic cover was removed and any adhered gelatin was transferred to a 10 ml centrifuge tube. The gelatin from the culture dish was also removed and transferred to the centrifuge tube with the aid of about 5 ml of water. The culture tube was rinsed with water and any suspended gelatin transferred by pipette to the centrifuge tube. The material in the tube was sonicated until the gelatin was redissolved (20-30 minutes, about 40° C.).
The sample was centrifuged for 20 minutes and the supernatant was removed. The recovered particles were slurried again with water, centrifuged, and the wash water removed. The resultant particles were dried in vacuum at room temperature and analyzed spectroscopically for the presence of dyes as in 2b above.
The standard fluence for removal of tattoo color in designs using these particles is 3.51 J/cm^2. 5.09 J/cm^2 is the maximum fluence on the Lutronic laser using a 5 mm spot. The laser triggered color changing tests were performed on 2 μm 5:1 Y197 (12.5% Y197:6.25% IR 1117), 2 μm 7:1 M071 (6.25% M071, 8.0 wt. % IR 1117), 2 μm 5:1 PBS (2.56 wt. % B141, 0.77 wt. % C161, 0.39 wt. % M071, 1.28 wt. % Y184, 8.0 wt. % IR1117), 2 μm 5:1 Y184 (12.5 wt. % Y184, 8.0 wt. % IR 1117) particles in the entries 21-24 of Table 3 above.(the numeric ratio is weight ratio of PMMA-BMA B-805 copolymer to colorant in the particle)

The nature of series [3]: Surfactant-based extractable test (dye leaching into 1% SDS). The series is classed as physicochemical. On the procedure:
Dried particles (50 mg) were added to 3 mL of 1% sodium dodecyl sulfate to form a dispersion. The dispersion was sonicated for approximately 1 hour. The dispersion was centrifuged, and the supernatant component was withdrawn and filtered through a […] syringe filter. The absorbance spectrum of the filtrate was measured from 400-1300 nm using Shimadzu UV-3600 UV/VIS/NIR Spectrophotometer in a 1 cm cell.
The amount of the dye leached is calculated as in 2b above by applying Beer's law (Eq. 1) to give leachate concentrations. Leaching reduction is defined as the percentage of dye leached from coated particles when compared to uncoated particles of the same structure.
Portions of these particles were coated with several different shell thicknesses as described in Example lb above and tested for effectiveness in preventing dye leaching following the surfactant-based extractable test described in section Example 3b. […]

The conditions of series [4]: cited from earlier work.
For series [5] the following is noted: cited from earlier work. The source holds these as a separate data set.
The mark [6] stands for this setting: 2 μm 5% PB5 particles, 25% VTMS shell, fluence 0 J/cm^2 (no laser).
Where [7] appears, read: 2 μm 5% PB5 particles, 1064 nm laser, fluence 3.51 J/cm^2.
Setting [8] is: 2 μm 5% PB5 particles, 1064 nm laser, fluence 4.28 J/cm^2.
The mark [9] stands for this setting: 2 μm 5% PB5 particles, 1064 nm laser, fluence 5.09 J/cm^2.
The mark [10] stands for this setting: 2 μm 7:1 M071 particles, 25% VTMS shell, fluence 0 J/cm^2 (no laser).
Setting [11] is: 2 μm 7:1 M071 particles, 1064 nm laser, fluence 2.46 J/cm^2.
Where [12] appears, read: 2 μm 7:1 M071 particles, 1064 nm laser, fluence 3.03 J/cm^2.
The mark [13] stands for this setting: 2 μm 7:1 M071 particles, 1064 nm laser, fluence 3.51 J/cm^2.
[14] abbreviates: 2 μm 7:1 M071 particles, 1064 nm laser, fluence 4.28 J/cm^2.
[15] abbreviates: 2 μm 7:1 M071 particles, 1064 nm laser, fluence 5.09 J/cm^2.
Where [16] appears, read: Table 7B: 0.5 μm 2:1 PB4 particles with a 25% VTMS shell vs uncoated.

By pKa is commonly meant the pH at which an ionisable group is half protonated.

Values after ≈ are worked out from the molar mass of the structure shown. Where two headings read alike, the source gives them in different places.

With “3,6-bis(2,3-dihydro-1H-indol-1-yl)-9-[2-[[[(1,1-dimethylethoxy)carbonyl]methylamino]sulfonyl]phenyl]-xanthylium [C161]”, the results for the “IC30 (70% viability)” value in series [1] and in series [1] (listed as Cyan dye) were 14.65 μM^a and “about 14 μM”, respectively.

Regarding “3,6-bis[(2-chlorophenyl)methylamino]-9-[2-[[[(1,1-dimethylethoxy)carbonyl]methylamino]sulfonyl]phenyl]-xanthylium [M071]”, the “% Reduction” value came out at 0% in series [2] (setting [6]); 30% in series [2] (setting [7]); 30% in series [2] (setting [8]); 30% in series [2] (setting [9]); 0% in series [2] (setting [10]); 23% in series [2] (setting [11]). Also, the “% Reduction” value is recorded as 30% in series [2] (setting [12]), 34% in series [2] (setting [13]), 47% in series [2] (setting [14]) and 43% in series [2] (setting [15]). Besides, the Abs in series [2] (setting [6]) turned out to be 0.023; in series [2] (setting [7]), 0.016; in series [2] (setting [8]), 0.016; in series [2] (setting [9]), 0.016; in series [2] (setting [10]), 0.207; in series [2] (setting [11]), 0.159. The Abs in series [2] (setting [12]) amounted to 0.146; in series [2] (setting [13]), 0.137; in series [2] (setting [14]), 0.109; in series [2] (setting [15]) it was 0.119. Besides, in series [2] (1064 nm laser, particles in gelatin), the “fluence at which the dye decay levels off” value is reported as 4.28 J/cm^2. The “decay (reduction) after laser irradiation” value in series [2] (M071 particles, 1064 nm laser, fluences 2.46 to 5.09 J/cm^2) is “about 50%”. In addition, the “IC30 (70% viability)” value in series [1] is listed as 63.23 μM^a; in series [1] (listed as Magenta), “about 61 μM”.

For the compound “6-(dibutylamino)-9-[2-[[[(1,1-dimethylethoxy)carbonyl](methylsulfonyl)amino]methyl]phenyl]-3-methyl-2-(phenylamino)-xanthylium [B141]”, the “IC30 (70% viability)” value in series [1] is reported as 61.22 μM^a; in series [1] (listed as Black), “about 61 μM”.

In the case of “9-[2-[[[(1,1-dimethylethoxy)carbonyl]methylamino]sulfonyl]phenyl]-3,6-diphenoxy-xanthylium [Y161]”, the Leachate concentration in series [3] (Table 7B: 0.5 μm 2:1 PB4 particles with a 25% VTMS shell) worked out at 1.2 µM. In series [3] (setting [16]), the “Leaching reduced to” value came to 1.4% and the “Reduction Factor” value is listed as 72.6. Further, the Leachate concentration in series [3] (Table 7B: 0.5 μm 2:1 PB4 particles, uncoated particle) came to 87.1 µM.

For the compound `NC(=O)CN(CC(=O)O)CC(=O)O` [ADA, 2-[(2-amino-2-oxoethyl)-(carboxymethyl)amino]acetic acid], the “pKa at 20° C.” value in series [4] is on record as 6.62.

For `CC(C)(CO)NCCCCS(=O)(=O)O` [AMPB], the “pKa at 20° C.” value in series [4] was 8.8.

As for `O=S(=O)(O)CCCNC1CCCCC1` [CAPS], in series [4], the “pKa at 20° C.” value is 10.4.

Turning to `C[N+](C)(C)CCN` [Cholamine chloride], in series [4], the “pKa at 20° C.” value is 7.10. Further, the “Solubility in water at 0° C.” value in series [5] ((as HCl)) was 4200 mM.

Take `NCC(N)=O` [Glycinamide]: the “pKa at 20° C.” value in series [4] is 8.2. Further, the “Solubility in water at 0° C.” value in series [5] ((as HCl)) was 6400 mM (≈ 474 mg/mL).

As for `O=S(=O)(O)CCCN1CCN(CCO)CC1` [HEPPS, 3-[4-(2-Hydroxyethyl)piperazin-1-yl]propane-1-sulfonic acid], in series [4], the “pKa at 20° C.” value is on record as 8.1. Moreover, in series [5], the “Solubility in water at 0° C.” value is “Large”.

For `O=S(=O)(O)CC(O)CN1CCN(CCO)CC1` (stereo not shown) [HEPPSO], in series [5], the “Solubility in water at 0° C.” value is 2200 mM (≈ 590 mg/mL).

Consider `O=S(=O)(O)CC(O)CN1CCOCC1` (stereo not shown) [MOPSO, 2-hydroxy-3-morpholin-4-ylpropane-1-sulfonic acid], for which the “Solubility in water at 0° C.” value in series [5] is 750 mM (≈ 169 mg/mL).

`O=S(=O)(O)CCN1CCN(CCS(=O)(=O)O)CC1` [PIPES, piperazine-N,N′-bis(2-ethanesulfonic acid)]: in series [4], the “pKa at 20° C.” value is reported as 6.82.

As for `O=S(=O)(O)CC(O)CNC(CO)(CO)CO` (stereo not shown) [TAPSO, 3-[[1,3-dihydroxy-2-(hydroxymethyl)propan-2-yl]amino]-2-hydroxypropane-1-sulfonic acid], in series [5], the “Solubility in water at 0° C.” value was 1000 mM (≈ 259 mg/mL).

With `O=S(=O)(O)CCCNC(CO)(CO)CO` [TAPS], the “Solubility in water at 0° C.” value in series [5] is “Large”.
